We go through five compounds from US20240270821A1, “GIP/GLP1/GCG TRI-RECEPTOR AGONISTS AND USES THEREOF” (priority 2023, published 2024).

Data set [1] deals with T1, hGLP-1R (Homo sapiens, UniProt P43220). Nature of the data set: Functional cAMP activity in the presence of 1% HSA. It counts as cell-based. The conditions noted are these: read-out: cAMP Rel EC50, hGLP-1R.
Data set [2] concerns the target T1, hGLP-1R. Kind of data set: Functional cAMP activation in the presence of 0.1% casein (no HSA). The conditions noted are these: read-out: Relative cAMP EC50, hGLP-1R. It counts as cell-based.
The target in the next data set is hGcgR (Homo sapiens, UniProt P47871). Described as above. It counts as cell-based. The conditions noted are these: read-out: Relative cAMP EC50, hGcgR.
Data set [3] can be described thus: Pepsin stability assay in simulated gastric fluid. It is filed as in vitro ADME. The conditions noted are these: pH 1.2, % Intact (SD). The protocol:
A pepsin stability assay is utilized to determine the relative stability of Example polypeptides in a simulated gastric proteolytic environment. […] The relative amount of intact peptide is quantified by mass spectrometry (MS). […] The examples were dissolved in 50 mM Tris buffer pH 8.0 at a concentration of 10 mg/mL as a stock solution. Pepsin A was reconstituted in SGF at 10 mg/mL. […] The example peptide and pepsin solutions were then incubated at 37° C. in a shaking incubator set at 100 rpm. Samples (25 μL) were withdrawn at different time intervals and quenched with 100 mM ammonium bicarbonate pH 9 (50 μL) to stop proteolytic activity. All samples were centrifuged, and the supernatants were analyzed by LC/MS to determine the remaining intact peptide.

For data set [4], the target named is T2, hGIPR (Homo sapiens, UniProt P48546).
T2 sequence (P48546 22-466): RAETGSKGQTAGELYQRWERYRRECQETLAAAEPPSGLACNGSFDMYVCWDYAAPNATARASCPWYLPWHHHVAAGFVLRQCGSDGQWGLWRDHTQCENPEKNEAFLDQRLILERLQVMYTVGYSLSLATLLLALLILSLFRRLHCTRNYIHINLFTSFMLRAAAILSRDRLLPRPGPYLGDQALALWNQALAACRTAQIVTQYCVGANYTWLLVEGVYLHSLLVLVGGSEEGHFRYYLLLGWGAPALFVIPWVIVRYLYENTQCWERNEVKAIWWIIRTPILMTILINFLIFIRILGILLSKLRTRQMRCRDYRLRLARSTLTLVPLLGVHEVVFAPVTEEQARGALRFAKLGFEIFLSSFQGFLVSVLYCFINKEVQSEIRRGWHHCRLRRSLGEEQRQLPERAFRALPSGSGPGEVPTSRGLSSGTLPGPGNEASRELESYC
Nature of the data set: Functional cAMP activity in the presence of 1% HSA. The conditions noted are these: read-out: cAMP Rel EC50, hGIPR. It counts as cell-based.

In a further data set the target is human GcgR (Homo sapiens, UniProt P47871). Kind of data set: Functional cAMP activity in the presence of 1% HSA. The settings on record: read-out: cAMP Rel EC50, hGcgR. It is filed as cell-based.
Data set [5] concerns the target T2, hGIPR. Nature of the data set: Functional cAMP activation in the presence of 0.1% casein (no HSA). It counts as cell-based. The conditions noted are these: read-out: Relative cAMP EC50, hGIPR.

Starred links: 1 amine or outer side, 2 acyl side, 3 side chain; linkers in the order of their positions; H or OH if unused. Non-standard residues stand in square brackets, D forms with d. Residues, ends and D or L forms follow the SMILES beside them. Groups on a side chain read outwards from the residue. *: point of attachment. C18 diacid = O=C(O)CCCCCCCCCCCCCCCCC(=O)*; αMePhe(2-F) = C[C@](N)(Cc1ccccc1F)C(=O)O; γGlu = O=C(O)[C@H](CCC(=O)[*:2])N[*:1]; αMe4Pal = C[C@](N)(Cc1ccncc1)C(=O)O; αMeY = C[C@](N)(Cc1ccc(O)cc1)C(=O)O; 4Pal = N[C@@H](Cc1ccncc1)C(=O)O; αMeL = CC(C)C[C@](C)(N)C(=O)O; αMeS = C[C@](N)(CO)C(=O)O; Orn = NCCC[C@H](N)C(=O)O; AEEA = NCCOCCOCC(=O)O; Aib = CC(C)(N)C(=O)O
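Wherever Relative cAMP EC50, hGIPR is given: intracellular cAMP rise after 30 min at 37 °C read by HTRF against a standard curve, scaled between buffer alone (0%) and top control ligand concentration (100%), four-parameter fit.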
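Wherever Relative cAMP EC50, hGLP-1R is given: intracellular cAMP rise after 30 min at 37 °C read by HTRF, normalized between buffer only (0%) and maximal control ligand (100%), four-parameter variable-slope fit.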
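Wherever Relative cAMP EC50, hGcgR is given: intracellular cAMP rise after 30 min at 37 °C, read by HTRF against a cAMP standard curve, scaled from buffer only (0%) to maximal control ligand response (100%).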

Sequence of human GcgR (P47871 26-477): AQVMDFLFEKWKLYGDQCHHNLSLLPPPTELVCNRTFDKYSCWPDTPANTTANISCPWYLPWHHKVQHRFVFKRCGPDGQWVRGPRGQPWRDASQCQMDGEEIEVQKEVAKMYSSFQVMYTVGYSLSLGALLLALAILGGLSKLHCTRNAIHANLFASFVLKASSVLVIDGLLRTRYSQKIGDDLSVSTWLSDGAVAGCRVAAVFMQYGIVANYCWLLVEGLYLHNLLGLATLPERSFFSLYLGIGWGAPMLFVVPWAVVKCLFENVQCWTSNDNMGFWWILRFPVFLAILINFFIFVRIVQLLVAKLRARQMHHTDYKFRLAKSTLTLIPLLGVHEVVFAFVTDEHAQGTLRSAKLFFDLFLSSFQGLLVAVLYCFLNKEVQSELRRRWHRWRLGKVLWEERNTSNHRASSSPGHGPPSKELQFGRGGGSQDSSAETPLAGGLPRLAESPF
Sequence of hGcgR (P47871 26-477): as above
T1 sequence (P43220 24-463): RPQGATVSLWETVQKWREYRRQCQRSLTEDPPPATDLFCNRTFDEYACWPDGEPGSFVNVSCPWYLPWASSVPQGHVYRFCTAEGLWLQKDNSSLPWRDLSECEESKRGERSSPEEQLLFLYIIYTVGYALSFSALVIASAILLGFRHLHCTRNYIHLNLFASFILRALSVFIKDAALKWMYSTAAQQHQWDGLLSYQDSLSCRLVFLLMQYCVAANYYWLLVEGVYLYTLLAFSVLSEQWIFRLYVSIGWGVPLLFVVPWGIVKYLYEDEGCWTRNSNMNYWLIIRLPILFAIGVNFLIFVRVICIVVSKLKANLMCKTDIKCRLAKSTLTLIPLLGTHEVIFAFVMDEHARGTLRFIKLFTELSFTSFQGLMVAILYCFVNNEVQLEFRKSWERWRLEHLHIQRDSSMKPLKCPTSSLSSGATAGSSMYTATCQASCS

Take “H-Y[Aib]QGT[αMePhe(2-F)]TSD[4Pal]SI[αMeL]LD[Orn]K([AEEA-γGlu-C18 diacid])AQ[αMe4Pal][Orn]FI[dE]YLIEGGPSSGEPPPEGT-NH2 [Example 500]”: the EC50 at hGLP-1R [1] came out at 50.3 nM; at hGLP-1R [2] it was 0.623 nM; on hGcgR, 4.04 nM; at hGIPR [4] it was 3.9 nM; at human GcgR, 494 nM; on hGIPR [5], 0.0375 nM. Moreover, in data set [3], the amount remaining at 0.25 h, 0.4 mg/mL was 10.6%. For the same compound, the amount remaining at 0.5 h, 0.4 mg/mL in data set [3] was 1%. The fraction remaining at 1 h, 0.4 mg/mL in data set [3] was 0%.

On to `CC[C@H](C)[C@H](NC(=O)[C@H](CC(C)C)NC(=O)[C@](C)(Cc1ccc(O)cc1)NC(=O)[C@@H](CCC(=O)O)NC(=O)[C@@H](NC(=O)[C@H](Cc1ccccc1)NC(=O)[C@@H](NC(=O)C(C)(C)NC(=O)[C@H](CCC(N)=O)NC(=O)[C@H](C)NC(=O)[C@H](CCCCNC(=O)COCCOCCNC(=O)CC[C@H](NC(=O)CCCCCCCCCCCCCCCCC(=O)O)C(=O)O)NC(=O)[C@H](CCCN)NC(=O)[C@H](CC(=O)O)NC(=O)[C@H](CC(C)C)NC(=O)[C@](C)(CC(C)C)NC(=O)[C@@H](NC(=O)[C@](C)(CO)NC(=O)[C@H](Cc1ccncc1)NC(=O)[C@H](CC(=O)O)NC(=O)[C@H](CO)NC(=O)[C@@H](NC(=O)[C@](C)(Cc1ccccc1F)NC(=O)[C@@H](NC(=O)CNC(=O)[C@H](CCC(N)=O)NC(=O)C(C)(C)NC(=O)[C@@H](N)Cc1ccc(O)cc1)[C@@H](C)O)[C@@H](C)O)[C@@H](C)CC)[C@@H](C)O)[C@@H](C)CC)C(=O)N[C@@H](CCC(=O)O)C(=O)NCC(=O)NCC(=O)N1CCC[C@H]1C(=O)N[C@@H](CO)C(=O)N[C@@H](CO)C(=O)NCC(=O)N[C@@H](CCC(=O)O)C(=O)N1CCC[C@H]1C(=O)N1CCC[C@H]1C(=O)N1CCC[C@H]1C(=O)N[C@@H](CCC(=O)O)C(N)=O` [Example 457] (H-Y[Aib]QGT[αMePhe(2-F)]TSD[4Pal][αMeS]I[αMeL]LD[Orn]K([AEEA-γGlu-C18 diacid])AQ[Aib]TFI[dE][αMeY]LIEGGPSSGEPPPE-NH2), for which the EC50 was 11.7 nM at hGLP-1R [1]; 0.226 nM at hGLP-1R [2]; 2.86 nM on hGcgR; 0.881 nM on hGIPR [4]; 333 nM on human GcgR; 0.00918 nM on hGIPR [5]. Also, in data set [3], the share remaining at 0.25 h, 0.4 mg/mL is 78.8%. Also, in data set [3], the fraction remaining at 0.5 h, 0.4 mg/mL was 68.9%. Also, the fraction remaining at 1 h, 0.4 mg/mL in data set [3] is 60.1%.

For the compound “H-Y[Aib]QGT[αMePhe(2-F)]TSD[4Pal][αMeS]I[αMeL]LD[Orn]K([AEEA-γGlu-C18 diacid])AQ[αMe4Pal]EFI[dE][αMeY]LIEGGPSSGEPPPSGGGE-NH2 [Example 742]”, the EC50 on hGLP-1R [1] amounted to 33.3 nM; on hGLP-1R [2] it was 0.266 nM; at hGcgR, 1.25 nM; at hGIPR [4] it was 0.857 nM; at human GcgR, 203 nM; at hGIPR [5] it was 0.00688 nM. The share remaining at 0.25 h, 0.4 mg/mL in data set [3] is 100%. For the same compound, in data set [3], the share remaining at 0.5 h, 0.4 mg/mL is 113%. The fraction remaining at 1 h, 0.4 mg/mL in data set [3] is 103%.

Turning to “H-Y[Aib]QGT[αMePhe(2-F)]TSD[4Pal][αMeS]I[αMeL]LD[Orn]K([γGlu-γGlu-C18 diacid])AQ[αMe4Pal]EFI[dE][αMeY]LIEGGPSSGAPPPSGTGE-NH2 [Example 718]”, the EC50 on hGLP-1R [1] was 23.2 nM; at hGLP-1R [2], 0.214 nM; at hGcgR, 1.2 nM; on hGIPR [4], 0.531 nM; on human GcgR, 144 nM; on hGIPR [5], 0.00706 nM. For the same compound, in data set [3], the share remaining at 0.25 h, 0.4 mg/mL is 103%. Moreover, in data set [3], the amount remaining at 0.5 h, 0.4 mg/mL was 101%.

With “H-Y[Aib]QGT[αMePhe(2-F)]TSD[4Pal][αMeS]I[αMeL]LD[Orn]K([AEEA-γGlu-C18 diacid])AQ[αMe4Pal]EFI[dE][αMeY]LIEGGPSSGEPPPSGTGE-NH2 [Example 711]”, the EC50 turned out to be 35.2 nM on hGLP-1R [1]; 0.355 nM at hGLP-1R [2]; 1.29 nM on hGcgR; 0.786 nM at hGIPR [4]; 197 nM at human GcgR; 0.00861 nM at hGIPR [5]. Further, the share remaining at 0.25 h, 0.4 mg/mL in data set [3] was 95%. In addition, the amount remaining at 0.5 h, 0.4 mg/mL in data set [3] is 91.6%. For the same compound, the amount remaining at 1 h, 0.4 mg/mL in data set [3] is 91.9%.

In general, EC50 refers to the concentration needed to bring the measured effect to its halfway point.
